Test results from ChEMBL document CHEMBL3351843, “Noncovalent fluorescent probes of human immuno- and constitutive proteasomes” (J Med Chem, 2014).
The source made the active and inactive calls. No cut-off for these calls is given here.

Assays:
[1] = Inhibition of chymotrypsin-like activity of human constitutive 20S proteasome incubated for 15 mins before fluorogenic substrate addition
[2] = Inhibition of PA activity of human constitutive 20S proteasome incubated for 15 mins before fluorogenic substrate addition
[3] = Inhibition of trypsin-like activity of human constitutive 20S proteasome incubated for 15 mins before fluorogenic substrate addition
[4] = Inhibition of chymotrypsin-like activity of human inducible 20S immunoproteasome incubated for 15 mins before fluorogenic substrate addition
[5] = Inhibition of PA activity of human inducible 20S immunoproteasome incubated for 15 mins before fluorogenic substrate addition
[6] = Inhibition of trypsin-like activity of human inducible 20S immunoproteasome incubated for 15 mins before fluorogenic substrate addition
Proteasome [7] = test: Inhibition of chymotrypsin-like activity of proteasome in HEK293 cells incubated for 1 hr by proteasome Glo cell-based chemiluminescent assay; conditions: Homo sapiens, HEK293, 1 h
Proteasome [8] = test: Inhibition of PA activity of proteasome in HEK293 cells incubated for 1 hr by proteasome Glo cell-based chemiluminescent assay; conditions: Homo sapiens, HEK293, 1 h
Proteasome [9] = test: Inhibition of trypsin-like activity of proteasome in HEK293 cells incubated for 1 hr by proteasome Glo cell-based chemiluminescent assay; conditions: Homo sapiens, HEK293, 1 h
[10] = Cytotoxicity against HEK293 cells assessed as cell survival at 5 uM incubated for 1 hr by XTT assay; assay type: cell-based; conditions: human, read-out: Survival
[11] = Drug uptake in nucleus of HEK293 cells at 5 uM incubated for 1 hr by DAPI staining based confocal microscopy; assay type: ADME, cell-based; conditions: human, hek293, 1 h
HEK293 [12] = test: Drug uptake in HEK293 cells at 5 uM incubated for 1 hr by flow cytometry; assay type: ADME, cell-based; conditions: human, hek293, 1 h
HEK293 [13] = test: Reversible inhibition of chymotrypsin-like activity of proteasome in HEK293 cells incubated for 1 hr by proteasome Glo cell-based chemiluminescent assay; conditions: Homo sapiens
Proteasome [14] = test: Reversible inhibition of PA activity of proteasome in HEK293 cells incubated for 1 hr by proteasome Glo cell-based chemiluminescent assay; conditions: Homo sapiens
Proteasome [15] = test: Reversible inhibition of trypsin-like activity of proteasome in HEK293 cells incubated for 1 hr by proteasome Glo cell-based chemiluminescent assay; conditions: Homo sapiens

SMILES	IC50 [1]	IC50 [2]	IC50 [3]	IC50 [4]	IC50 [5]	IC50 [6]	IC50 (Proteasome [7])	IC50 (Proteasome [8])	IC50 (Proteasome [9])	viability at 1 h, 5 µM [10]	Drug uptake [11]	Drug uptake (HEK293 [12])	inhibition (HEK293 [13])	inhibition (Proteasome [14])	inhibition (Proteasome [15])
C[C@H](NC(=O)[C@H](Cc1ccc(OCc2ccccc2)cc1)NC(=O)c1ccc(-c2c3ccc(=O)cc-3oc3cc(O)ccc23)c(C(=O)O)c1)C(=O)N[C@@H](C[C@]1(O)C(=O)Nc2ccccc21)C(=O)NCc1ccccc1	2590 nM	9520 nM	1930 nM	1490 nM	7060 nM	2430 nM	–	–	–	–	–	–	–	–	–
C[C@H](NC(=O)[C@H](Cc1ccc(OCc2ccccc2)cc1)NC(=O)CCCCCNC(=O)CCCCCNC(=O)CCCCCNC(=O)c1ccc(-c2c3ccc(=[N+](C)C)cc-3oc3cc(N(C)C)ccc23)c(C(=O)[O-])c1)C(=O)N[C@@H](C[C@]1(O)C(=O)Nc2ccccc21)C(=O)NCc1ccccc1	490 nM	1370 nM	1280 nM	670 nM	740 nM	1730 nM	125 nM	596 nM	515 nM	100%	Active	–	–	–	–
C[C@H](NC(=O)[C@H](Cc1ccc(OCc2ccccc2)cc1)NC(=O)c1ccc(-c2c3ccc(=[N+](C)C)cc-3oc3cc(N(C)C)ccc23)c(C(=O)[O-])c1)C(=O)N[C@@H](C[C@]1(O)C(=O)Nc2ccccc21)C(=O)NCc1ccccc1	430 nM	1080 nM	1630 nM	420 nM	830 nM	3530 nM	289 nM	1120 nM	2480 nM	90.1%	Active	Active	–	–	–
C[C@H](NC(=O)[C@H](Cc1ccc(OCc2ccccc2)cc1)NC(=O)CCCCCNC(=O)c1ccc(-c2c3ccc(=[N+](C)C)cc-3oc3cc(N(C)C)ccc23)c(C(=O)[O-])c1)C(=O)N[C@@H](C[C@]1(O)C(=O)Nc2ccccc21)C(=O)NCc1ccccc1	480 nM	990 nM	1240 nM	560 nM	640 nM	1750 nM	65 nM	402 nM	521 nM	78.2%	Active	–	Active	Active	Active
COC(=O)CCCCCNC(=O)c1ccc(-c2c3ccc(=[N+](C)C)cc-3oc3cc(N(C)C)ccc23)c(C(=O)[O-])c1	–	–	–	–	–	–	–	–	–	67.6%	–	Active	–	–	–
C[C@H](NC(=O)[C@H](Cc1ccc(OCc2ccccc2)cc1)NC(=O)OC(C)(C)C)C(=O)N[C@@H](C[C@]1(O)C(=O)Nc2ccccc21)C(=O)NCc1ccccc1	3200 nM	11500 nM	7100 nM	2530 nM	6160 nM	27700 nM	–	–	–	–	–	–	–	–	–
